The source of these data is patent US20120277209A1, “PYRAZINE COMPOUNDS AS PHOSPHODIESTERASE 10 INHIBITORS” (Amgen Inc., priority 2009, published 2012).

pIC50: −log10 of the molar value.

Broadly, the pIC50 is −log10 of the IC50, conventionally taken in molar units.

The first assay has as its target PDE10 (UniProt Q9Y233). The assay is described as follows: PDE10 enzyme inhibition, IMAP TR-FRET assay (MPDE10A7 Enzyme Activity and Inhibition). The assay is classed as biochemical. The conditions noted are these: IC50 class against PDE10; read-out: IC50. An outline of the steps: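 IMAP TR-FRET read-out of PDE10 hydrolysis of fluorescein-cAMP or -cGMP (60 min, room temperature), after a 30 min compound-enzyme preincubation. Enzyme source was PDE10A or tissue homogenate. Averaged IC50s are reported as five range classes.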
As to `CC(=O)OC(C)C(=O)N1CCC(c2nccnc2Oc2ccc(C(=O)c3nc4ccccc4[nH]3)cc2)CC1` (stereo not drawn) [Example 238, 1-(4-(3-(4-(1H-benzo[d]imidazole-2-carbonyl)phenoxy)pyrazin-2-yl)piperidin-1-yl)-1-oxopropan-2-yl acetate], the pIC50 was more than 7.60.

For the compound `c1ccc2sc(Nc3ccc(Oc4nccnc4-c4ccc(N5CCOCC5)nc4)cc3)nc2c1` [Example 138, N-(4-(3-(6-morpholinopyridin-3-yl)pyrazin-2-yloxy)phenyl)benzo[d]thiazol-2-amine], the pIC50 is 6.60 to 7.00.

Consider `O=C(c1ccc(Oc2nccnc2C2(F)CCOCC2)cc1)c1nc2ccccc2[nH]1` [Example 203, (1H-BENZO[D]IMIDAZOL-2-YL)(4-(3-(4-FLUOROTETRAHYDRO-2H-PYRAN-4-YL)PYRAZIN-2-YLOXY)PHENYL)METHANONE], for which the negative logarithm of the IC50 (pIC50) was more than 7.60.

For the compound `COc1cc(-c2nccnc2Oc2ccc(C(=O)c3nc4ccccc4[nH]3)cc2)ccn1` [Example 120, (1H-benzo[d]imidazol-2-yl)(4-(3-(2-methoxypyridin-4-yl)pyrazin-2-yloxy)phenyl)methanone], the pIC50 is more than 7.60.

With `OCc1ccc(-c2nccnc2Oc2ccc(Nc3nc4ccccc4s3)cc2)cn1` [Example 146, (5-(3-(4-(benzo[d]thiazol-2-ylamino)phenoxy)pyrazin-2-yl)pyridin-2-yl)methanol], the pIC50 was 7.00 to 7.60.

Regarding `O[C@H]1CCC[C@@H](c2nccnc2Oc2ccc(Nc3nc4ccccc4s3)cc2)C1` (racemic) [Example 191, (rac)-cis-3-(3-(4-(benzo[d]thiazol-2-ylamino)phenoxy)pyrazin-2-yl)cyclohexanol], the pIC50 is more than 7.60.

In the case of `O=C(c1ccc(Oc2nccnc2C2CCOCC2)cc1)c1nc2ccccc2[nH]1` [Example 181, (1H-benzo[d]imidazol-2-yl)(4-(3-(tetrahydro-2H-pyran-4-yl)pyrazin-2-yloxy)phenyl)methanone], the pIC50 is more than 7.60.

Take `COc1ncccc1-c1nccnc1Oc1ccc(C(=O)c2nc3ccccc3n2CCF)cc1` [Example 134, (1-(2-fluoroethyl)-1H-benzo[d]imidazol-2-yl)(4-(3-(2-methoxypyridin-3-yl)pyrazin-2-yloxy)phenyl)methanone]: the negative logarithm of the IC50 (pIC50) was more than 7.60.

Consider `COCC(=O)N1CCC(c2nccnc2Oc2ccc(C(=O)c3nc4ccccc4n3C)cc2)CC1` [Example 243, 2-methoxy-1-(4-(3-(4-(1-methyl-1H-benzo[d]imidazole-2-carbonyl)phenoxy)pyrazin-2-yl)piperidin-1-yl)ethanone], for which the negative-log IC50 (pIC50) is more than 7.60.

Turning to `c1ccc2sc(Nc3ccc(Oc4nccnc4C4CCOC4)cc3)nc2c1` (stereo not drawn) [Example 221, N-(4-(3-(TETRAHYDROFURAN-3-YL)PYRAZIN-2-YLOXY)PHENYL)BENZO[D]THIAZOL-2-AMINE], the negative-log IC50 (pIC50) is more than 7.60.

Turning to `O=C(c1ccc(Oc2nccnc2C2CCSCC2)cc1)c1nc2ccccc2[nH]1` [Example 222, 1H-BENZO[D]IMIDAZOLE-2-YL(4-(3-(TETRAHYDRO-2H-THIOPYRAN-4-YL)PYRAZIN-2-YLOXY)PHENYL)METHANONE], the negative-log IC50 (pIC50) is more than 7.60.

`CC(Cc1ccccn1)NC(=O)c1nccnc1Oc1ccc(C(=O)c2nc3ccccc3[nH]2)cc1` (racemic) [Example 259, (rac)-3-(4-(1H-benzo[d]imidazole-2-carbonyl)phenoxy)-N-(1-(pyridin-2-yl)propan-2-yl)pyrazine-2-carboxamide]: the pIC50 is more than 7.60.

For `O=C1C=C(c2nccnc2Oc2ccc(Nc3nc4ccccc4s3)c(F)c2)CCC1` [Example 136, 3-(3-(4-(benzo[d]thiazol-2-ylamino)-3-fluorophenoxy)pyrazin-2-yl)cyclohex-2-enone], the negative logarithm of the IC50 (pIC50) was more than 7.60.

Consider `O=C(c1ccc(Oc2nccnc2Oc2ccccc2)cc1)c1nc2ccccc2[nH]1` [Example 167, (1H-benzo[d]imidazol-2-yl)(4-(3-phenoxypyrazin-2-yloxy)phenyl)methanone], for which the pIC50 was 6.60 to 7.00.

With `COc1ncccc1-c1nccnc1Oc1ccc(Nc2nc3cccc(F)c3s2)cc1` [Example 151, 7-fluoro-N-(4-(3-(2-methoxypyridin-3-yl)pyrazin-2-yloxy)phenyl)benzo[d]thiazol-2-amine], the pIC50 is 7.00 to 7.60.

Take `O=C1CCCC(c2nccnc2Oc2ccc(Nc3nc4ccccc4s3)cc2)C1` (racemic) [Example 194, (rac)-3-(3-(4-(benzo[d]thiazol-2-ylamino)phenoxy)pyrazin-2-yl)cyclohexanone]: the negative-log IC50 (pIC50) was more than 7.60.

On to `O=C(c1ccc(Oc2nccnc2C2CCOCC2)cc1)c1nc2ccc(F)cc2[nH]1` [Example 183, (6-fluoro-1H-benzo[d]imidazol-2-yl)(4-(3-(tetrahydro-2H-pyran-4-yl)pyrazin-2-yloxy)phenyl)methanone], for which the pIC50 is more than 7.60.

For `OC[C@@H]1CCCN1c1nccnc1Oc1ccc(Nc2nc3ccccc3s2)cc1` [Example 76, (S)-(1-(3-(4-(benzo[d]thiazol-2-ylamino)phenoxy)pyrazin-2-yl)pyrrolidin-2-yl)methanol], the pIC50 is more than 7.60.

For `COc1cccc(-c2nccnc2Oc2ccc(Nc3nc4ccccc4s3)cc2)c1` [Example 150, N-(4-(3-(3-methoxyphenyl)pyrazin-2-yloxy)phenyl)benzo[d]thiazol-2-amine], the pIC50 was 7.00 to 7.60.

Consider `O=C(c1ccc(Oc2nccnc2[C@H]2CCC[C@H](O)C2)cc1)c1nc2ccccc2[nH]1` (racemic) [Example 190, (rac)-trans-(1H-benzo[d]imidazol-2-yl)(4-(3-(3-hydroxycyclohexyl)pyrazin-2-yloxy)phenyl)methanone], for which the pIC50 was more than 7.60.

The assay is the same for the next values; noted with them: PDE10 enzyme inhibition; average IC50 data for each compound; read-out: Average IC50.
For the compound `COC(=O)C1(c2nccnc2Oc2ccc(Nc3nc4ccccc4s3)cc2)CCN(C(=O)OC(C)(C)C)CC1` [drawing 869], the pIC50 was 6.61.

Turning to `COC(=O)[C@H]1CCN(c2nccnc2Oc2ccc(C(=O)c3nc4ccccc4[nH]3)cc2)C1` [drawing 837], the pIC50 is 8.38.

`COc1ccc(COc2ncccc2-c2nccnc2Oc2ccc(C(=O)c3nc4ccccc4[nH]3)cc2)cc1`: the pIC50 is 7.96.

Turning to `COc1nc2ccccc2cc1-c1nccnc1Oc1ccc(C(=O)c2nc3ccccc3[nH]2)cc1` [drawing 943], the negative logarithm of the IC50 (pIC50) was 6.65.

Turning to `C[C@H](F)C(=O)N1CCC(c2nccnc2Oc2ccc(Nc3nc4ccccc4s3)cc2)CC1` (stereo in doubt), the negative logarithm of the IC50 (pIC50) is 9.75.

For the compound `C[C@@H](F)C(=O)N1CCC(c2nccnc2Oc2ccc(C(=O)c3nc4ccccc4[nH]3)cc2)CC1` (stereo in doubt), the pIC50 is 9.88.

As to `CC(=O)N1CC(c2nccnc2Oc2ccc(C(=O)c3nc4ccccc4[nH]3)cc2)C1` [drawing 925], the negative logarithm of the IC50 (pIC50) is 8.57.

For the compound `OCCC1CCN(c2nccnc2Oc2ccc(Nc3nc4ccccc4s3)cc2)CC1` [drawing 735], the pIC50 was 8.02.

For `O=C(c1ccc(Oc2nccnc2[C@H]2CCCOC2)cc1)c1nc2ccccc2[nH]1` (stereo in doubt), the pIC50 was 8.59.

As to `COc1ncccc1-c1nccnc1Oc1ccc(C(=O)c2nc3cc(F)ccc3[nH]2)cc1` [drawing 931], the pIC50 was 8.23.

With `COC1CCN(c2nccnc2Oc2ccc(Nc3nc4ccccc4s3)cc2)CC1` [drawing 767], the negative-log IC50 (pIC50) is 7.43.

As to `O=C(c1ccc(Oc2nccnc2[C@@H]2CCC[C@@H](O)C2)cc1)c1nc2ccccc2[nH]1` (stereo in doubt) [drawing 898], the pIC50 is 8.90.

With `O=C(c1ccc(Oc2nccnc2OCC(F)(F)F)cc1)c1nc2ccccc2[nH]1` [drawing 847], the pIC50 was 6.73.

For `O=C1CCC(c2nccnc2Oc2ccc(C(=O)c3nc4ccccc4[nH]3)cc2)CC1` [drawing 911], the negative-log IC50 (pIC50) is 9.70.

`O=C(c1ccc(Oc2nccnc2Cl)cc1)c1nc2ccc(F)cc2[nH]1` [drawing 813]: the pIC50 was 5.80.

For the compound `C[C@H](Cc1ccccn1)NC(=O)c1nccnc1Oc1ccc(C(=O)c2nc3ccccc3[nH]2)cc1` (racemic), the negative-log IC50 (pIC50) is 8.33.

On to `O=C(c1ccc(Oc2nccnc2Cl)cc1)c1nc2cccc(F)c2[nH]1`, for which the pIC50 was 6.39.

`O=C(c1ccc(Oc2nccnc2[C@@H]2CCC[C@H](O)C2)cc1)c1nc2ccccc2[nH]1` [drawing 907]: the negative-log IC50 (pIC50) was 8.94.

In the case of `CC(=O)N1CC=C(c2nccnc2Oc2ccc(C(=O)c3nc4ccccc4[nH]3)cc2)CC1` [drawing 751], the pIC50 was 8.94.

Regarding `c1ccc2sc(Nc3ccc(Oc4nccnc4C4CCOCC4)cc3)nc2c1` [drawing 864], the pIC50 is 9.22.

Take `Cc1cc(-c2nccnc2Oc2ccc(Nc3nc4ccccc4s3)cc2)ccn1` [drawing 750]: the pIC50 was 7.76.

Take `COC(=O)N1CCC(c2nccnc2Oc2ccc(Nc3nc4ccccc4s3)cc2)CC1`: the pIC50 was 9.69.

In the case of `N#Cc1cccc(-c2nccnc2Oc2ccc(C(=O)c3nc4ccccc4[nH]3)cc2)c1` [drawing 756], the pIC50 was 7.38.

Take `O=C(c1ccc(Oc2nccnc2N2CCC(CO)CC2)cc1)c1nc2ccccc2[nH]1`: the negative logarithm of the IC50 (pIC50) is 9.49.

For the compound `O=C(c1ccc(Oc2nccnc2N2CCC[C@H](CCO)C2)cc1)c1nc2ccccc2[nH]1` (stereo in doubt), the negative logarithm of the IC50 (pIC50) was 8.73.

Regarding `CCOC(=O)[C@@H]1CCCN(c2nccnc2Oc2ccc(C(=O)c3nc4ccccc4[nH]3)cc2)C1` [drawing 830], the pIC50 is 7.97.

As to `COC(=O)[C@H]1CCN(c2nccnc2Oc2ccc(Nc3nc4ccccc4s3)cc2)C1` (stereo in doubt), the pIC50 was 7.64.

On to `O=C(c1ccc(Oc2nccnc2N2CCC(C(=O)O)CC2)cc1)c1nc2ccccc2[nH]1`, for which the pIC50 was 8.93.

With `COCC(=O)N1CCC(c2nccnc2Oc2ccc(C(=O)c3nc4ccccc4n3C)cc2)CC1` [drawing 982], the negative-log IC50 (pIC50) is 9.28.

For `COc1cc(-c2nccnc2Oc2ccc(C(=O)c3nc4ccccc4[nH]3)cc2)ccn1` [drawing 883], the negative logarithm of the IC50 (pIC50) is 8.12.

Staying with this assay, now noted: PDE10 enzyme inhibition; chiral compounds separated from racemic mixtures; read-out: IC50.
As to `CCOC(=O)[C@@H]1CCCN(c2nccnc2Oc2ccc(C(=O)c3nc4ccccc4[nH]3)cc2)C1` [Example 263, (R)-ethyl 1-(3-(4-(1H-benzo[d]imidazole-2-carbonyl)phenoxy)pyrazin-2-yl)piperidine-3-carboxylate], the negative-log IC50 (pIC50) is more than 7.60.
